# Reference: ChEMBL document CHEMBL6083256, “Design, synthesis and biological evaluation of novel oxazole derivatives as potential hypoglycemic agents” (Bioorg Med Chem, 2024)
# Key:
# HepG2 [1] = assay: Induction of glucose consumption in starved human HepG2 cells assessed as fold increase in activity at 20 uM incubated for 24 hrs relative to control; assay type: functional
# [2] = molecular target: AMP-activated protein kinase, AMPK (Homo sapiens) (UniProt P54646+O43741+P54619+Q9UGJ0+Q9Y478+Q13131+Q9UGI9); assay: Induction of AMPK phosphorylation at Thr172 in human HepG2 cells incubated for 24 hrs by Western blot analysis; assay type: cell-based; settings: filed as activator
# HepG2 [3] = assay: Induction of glucose consumption in starved human HepG2 cells incubated for 24 hrs; assay type: functional, cell-based; settings: dose 1-25 µM
# 3T3-L1 [4] = assay: Induction of glucose consumption in starved mouse 3T3-L1 cells incubated for 24 hrs; assay type: functional, cell-based; settings: dose 1-25 µM
# HepG2 [5] = assay: Cytotoxicity against human HepG2 cells at 25 uM incubated for 72 hrs by CCK8 assay; assay type: toxicity, cell-based; settings: hepg2, 72 h
# 3T3-L1 [6] = assay: Cytotoxicity against mouse 3T3-L1 cells at 25 uM incubated for 72 hrs by CCK8 assay; assay type: toxicity, cell-based; settings: 3t3-l1, 72 h
# [7] = Cytotoxicity against human HepG2 cells incubated for 72 hrs by CCK8 assay; assay type: toxicity, cell-based
# [8] = Cytotoxicity against mouse 3T3-L1 cells incubated for 72 hrs by CCK8 assay; assay type: toxicity, cell-based
# HepG2 [9] = assay: Cytotoxicity against human HepG2 cells assessed as change in cell morphology at 3.125 to 100 uM incubated for 72 hrs; assay type: toxicity, cell-based; settings: hepg2, 72 h, dose 3.125-100 µM
# 3T3-L1 [10] = assay: Cytotoxicity against mouse 3T3-L1 cells assessed as change in cell morphology at 3.125 to 100 uM incubated for 72 hrs; assay type: toxicity, cell-based; settings: 3t3-l1, 72 h, dose 3.125-100 µM
# Mus musculus = assay: Hypoglycemic activity in overnight-fasted C57BL/6J mouse assessed as reduction in blood glucose level at 80 mg/kg, ip pretreated for 30 mins followed by glucose administration measured upto 120 mins by OGTT analysis; assay type: functional, organism-based; settings: time 150.0 min
# CYP3A4 = CYP3A4 (Homo sapiens, UniProt P08684); assay: Inhibition of CYP3A4 in human liver microsomes at 10 uM relative to control; assay type: ADME, Microsome
# Sequence of CYP3A4 (P08684 whole entry): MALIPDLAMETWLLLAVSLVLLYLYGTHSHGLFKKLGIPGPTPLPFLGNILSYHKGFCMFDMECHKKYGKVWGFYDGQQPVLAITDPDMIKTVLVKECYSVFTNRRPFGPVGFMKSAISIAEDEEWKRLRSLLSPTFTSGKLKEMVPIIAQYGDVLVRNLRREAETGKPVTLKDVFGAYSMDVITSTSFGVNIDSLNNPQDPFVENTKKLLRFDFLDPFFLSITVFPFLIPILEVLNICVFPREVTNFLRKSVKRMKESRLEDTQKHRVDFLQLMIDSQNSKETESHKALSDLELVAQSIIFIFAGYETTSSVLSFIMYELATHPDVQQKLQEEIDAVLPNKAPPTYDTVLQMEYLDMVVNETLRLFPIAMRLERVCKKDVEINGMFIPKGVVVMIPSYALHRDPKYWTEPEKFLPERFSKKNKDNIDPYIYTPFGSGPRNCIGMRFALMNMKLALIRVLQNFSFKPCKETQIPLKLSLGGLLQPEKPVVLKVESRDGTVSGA
# CYP2C9 = CYP2C9 (Homo sapiens, UniProt P11712); assay: Inhibition of CYP2C9 in human liver microsomes at 10 uM relative to control; assay type: ADME, Microsome
# Sequence of CYP2C9 (P11712 whole entry): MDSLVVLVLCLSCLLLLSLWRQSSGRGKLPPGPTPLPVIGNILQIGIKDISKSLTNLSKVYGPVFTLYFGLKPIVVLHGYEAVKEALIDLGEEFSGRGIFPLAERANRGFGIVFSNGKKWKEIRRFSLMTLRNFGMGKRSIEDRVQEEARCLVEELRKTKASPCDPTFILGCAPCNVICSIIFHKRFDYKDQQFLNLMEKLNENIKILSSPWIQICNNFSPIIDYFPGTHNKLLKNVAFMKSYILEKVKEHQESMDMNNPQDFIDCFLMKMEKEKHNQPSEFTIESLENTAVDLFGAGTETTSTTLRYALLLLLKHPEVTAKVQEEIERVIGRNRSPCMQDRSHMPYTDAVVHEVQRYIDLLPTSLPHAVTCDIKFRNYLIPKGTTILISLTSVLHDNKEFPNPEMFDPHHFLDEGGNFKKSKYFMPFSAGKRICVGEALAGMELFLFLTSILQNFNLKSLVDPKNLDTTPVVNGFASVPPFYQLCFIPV
# CYP2C19 = CYP2C19 (Homo sapiens, UniProt P33261); assay: Inhibition of CYP2C19 in human liver microsomes at 10 uM relative to control; assay type: ADME, Microsome
# Sequence of CYP2C19 (P33261 whole entry): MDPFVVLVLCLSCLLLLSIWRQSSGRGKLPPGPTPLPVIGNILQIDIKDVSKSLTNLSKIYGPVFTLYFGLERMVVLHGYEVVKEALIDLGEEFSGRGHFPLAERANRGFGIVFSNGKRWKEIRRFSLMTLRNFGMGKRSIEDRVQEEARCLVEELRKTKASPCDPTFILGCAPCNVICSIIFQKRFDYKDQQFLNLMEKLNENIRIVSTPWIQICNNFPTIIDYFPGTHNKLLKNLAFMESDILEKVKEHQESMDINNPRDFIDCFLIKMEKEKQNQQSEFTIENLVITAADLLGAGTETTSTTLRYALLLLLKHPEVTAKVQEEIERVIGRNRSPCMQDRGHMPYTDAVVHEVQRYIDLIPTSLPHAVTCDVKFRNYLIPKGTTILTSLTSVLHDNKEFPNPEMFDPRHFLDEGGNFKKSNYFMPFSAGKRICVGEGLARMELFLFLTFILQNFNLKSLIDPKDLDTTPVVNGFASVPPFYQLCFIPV
# CYP2D6 = CYP2D6 (Homo sapiens, UniProt P10635); assay: Inhibition of CYP2D6 in human liver microsomes at 10 uM relative to control; assay type: ADME, Microsome
# Sequence of CYP2D6 (P10635 whole entry): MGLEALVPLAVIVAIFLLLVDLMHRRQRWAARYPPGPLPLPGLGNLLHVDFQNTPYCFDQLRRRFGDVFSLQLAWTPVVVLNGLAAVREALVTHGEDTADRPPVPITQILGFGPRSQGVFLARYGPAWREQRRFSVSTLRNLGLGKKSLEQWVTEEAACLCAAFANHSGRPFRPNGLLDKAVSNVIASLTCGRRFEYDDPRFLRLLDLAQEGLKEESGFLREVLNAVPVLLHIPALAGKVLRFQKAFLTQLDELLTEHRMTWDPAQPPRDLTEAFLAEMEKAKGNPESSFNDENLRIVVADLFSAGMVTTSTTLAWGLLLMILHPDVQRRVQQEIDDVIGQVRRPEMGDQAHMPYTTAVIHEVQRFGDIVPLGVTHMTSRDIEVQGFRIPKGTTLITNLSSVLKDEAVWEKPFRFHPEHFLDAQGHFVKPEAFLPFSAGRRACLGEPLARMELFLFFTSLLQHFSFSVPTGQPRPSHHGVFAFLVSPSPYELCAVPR
# CYP1A2 = molecular target: T1, CYP1A2 (Homo sapiens, UniProt P05177); assay: Inhibition of CYP1A2 in human liver microsomes at 10 uM relative to control; assay type: ADME, Microsome
# T1 sequence (P05177 whole entry): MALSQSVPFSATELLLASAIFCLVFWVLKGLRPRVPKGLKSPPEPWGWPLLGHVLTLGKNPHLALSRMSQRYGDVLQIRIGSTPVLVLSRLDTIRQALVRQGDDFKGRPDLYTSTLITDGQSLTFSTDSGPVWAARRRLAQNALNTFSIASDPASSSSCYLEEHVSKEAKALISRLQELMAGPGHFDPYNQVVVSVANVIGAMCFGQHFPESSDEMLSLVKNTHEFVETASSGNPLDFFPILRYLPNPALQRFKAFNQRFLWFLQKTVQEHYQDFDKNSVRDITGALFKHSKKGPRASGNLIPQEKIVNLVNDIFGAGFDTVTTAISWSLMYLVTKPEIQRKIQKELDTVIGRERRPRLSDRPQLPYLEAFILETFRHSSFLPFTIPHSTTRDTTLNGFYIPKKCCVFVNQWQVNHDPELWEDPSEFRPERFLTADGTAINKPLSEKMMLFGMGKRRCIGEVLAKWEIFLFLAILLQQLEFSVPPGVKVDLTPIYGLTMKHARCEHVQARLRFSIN
# HepG2 [11] = assay: Induction of glucose consumption in starved human HepG2 cells assessed as fold increase in activity at 2 mM incubated for 24 hrs relative to control; assay type: functional
# HepG2 [12] = assay: Cytotoxicity against human HepG2 cells at 100 uM incubated for 72 hrs by CCK8 assay; assay type: toxicity, cell-based; settings: hepg2, 72 h
# 3T3-L1 [13] = assay: Cytotoxicity against mouse 3T3-L1 cells at 100 uM incubated for 72 hrs by CCK8 assay; assay type: toxicity, cell-based; settings: 3t3-l1, 72 h
smiles,measurement,setting,value
CC(=O)N1CCN(Cc2coc(-c3ccc(C(F)(F)F)cc3)n2)CC1,fold change (FC),HepG2 [1],1.21
COCC1CCN(Cc2coc(-c3ccc(C(F)(F)F)cc3)n2)CC1,fold change (FC),HepG2 [1],1.2
CCOC1CCN(Cc2coc(-c3ccc(C(F)(F)F)cc3)n2)CC1,fold change (FC),HepG2 [1],1.42
OCC1CCN(Cc2coc(-c3ccc(Cl)cc3)n2)CC1,fold change (FC),HepG2 [1],1.24
CCOC(=O)C1CCN(Cc2coc(-c3ccc(C(F)(F)F)cc3)n2)CC1,fold change (FC),HepG2 [1],1.34
FC(F)(F)c1ccc(-c2nc(CN3CCOCC3)co2)cc1,fold change (FC),HepG2 [1],1.52
OCC1CCN(Cc2coc(-c3cccc(C(F)(F)F)c3)n2)CC1,fold change (FC),HepG2 [1],1.4
OCC1CCN(Cc2coc(-c3ccc(F)cc3)n2)CC1,fold change (FC),HepG2 [1],1.27
Cc1cccc(-c2nc(CN3CCC(CO)CC3)co2)c1,fold change (FC),HepG2 [1],1.25
COC1CCCN(Cc2coc(-c3ccc(C(F)(F)F)cc3)n2)C1 (configuration not stated),fold change (FC),HepG2 [1],1.05
OCC1CCN(Cc2coc(-c3ccc(C(F)(F)F)cc3)n2)CC1,fold change (FC),HepG2 [1],1.43
CS(=O)(=O)C1CCN(Cc2coc(-c3ccc(C(F)(F)F)cc3)n2)CC1,fold change (FC),HepG2 [1],1.39
OCC1CCN(Cc2coc(-c3cccc(Cl)c3)n2)CC1,fold change (FC),HepG2 [1],1.05
OCC1CCN(Cc2coc(-c3ccccc3)n2)CC1,fold change (FC),HepG2 [1],1.36
CC(C)(C)OC(=O)N1CCN(Cc2coc(-c3ccc(C(F)(F)F)cc3)n2)CC1,fold change (FC),HepG2 [1],1.46
COC(=O)C1CCN(Cc2coc(-c3ccc(C(F)(F)F)cc3)n2)CC1,Activity,[2],Dose-dependent-effect
same,fold change (FC),HepG2 [1],1.6
same,Activity,HepG2 [3],Dose-dependent-effect
same,Activity,3T3-L1 [4],Dose-dependent-effect
same,Activity,HepG2 [5],Non-toxic
same,Activity,3T3-L1 [6],Non-toxic
same,IC50 at 72 h,[7],> 100 µM
same,IC50 at 72 h,[8],> 100 µM
same,Activity,HepG2 [9],Non-toxic
same,Activity,3T3-L1 [10],Non-toxic
same,Activity,Mus musculus,Active; Exhibited Strongest Activity Than Other Tested Compounds
same,inhibition at 10 µM,CYP3A4,2.1%
same,inhibition at 10 µM,CYP2C9,5.8%
same,inhibition at 10 µM,CYP2C19,21.7%
same,inhibition at 10 µM,CYP2D6,4.6%
same,inhibition at 10 µM,CYP1A2,16.2%
OCC1CCN(Cc2coc(-c3cc(F)cc(F)c3)n2)CC1,fold change (FC),HepG2 [1],0.95
OCC1CCCN(Cc2coc(-c3ccc(C(F)(F)F)cc3)n2)C1 (configuration not stated),fold change (FC),HepG2 [1],1.42
CN(C)C(=N)NC(=N)N [METFORMIN],fold change (FC),HepG2 [11],1.57
OCC1CCN(Cc2coc(-c3cccc(F)c3)n2)CC1,fold change (FC),HepG2 [1],1.12
CS(=O)(=O)N1CCN(Cc2coc(-c3ccc(C(F)(F)F)cc3)n2)CC1,fold change (FC),HepG2 [1],1.63
same,Activity,HepG2 [3],Dose-dependent-effect
same,Activity,3T3-L1 [4],Dose-dependent-effect
same,Activity,HepG2 [5],Non-toxic
same,Activity,3T3-L1 [6],Non-toxic
same,IC50 at 72 h,[7],> 100 µM
same,IC50 at 72 h,[8],> 100 µM
same,Activity,HepG2 [9],Non-toxic
same,Activity,3T3-L1 [10],Non-toxic
same,Activity,Mus musculus,Not active; Exhibited Minimal Activity
Cc1ccc(-c2nc(CN3CCC(CO)CC3)co2)cc1,fold change (FC),HepG2 [1],1.39
NC1CCN(Cc2coc(-c3ccc(C(F)(F)F)cc3)n2)CC1,fold change (FC),HepG2 [1],1.6
same,Activity,HepG2 [3],Dose-dependent-effect
same,Activity,3T3-L1 [4],Dose-dependent-effect
same,Activity,HepG2 [12],Toxic
same,Activity,3T3-L1 [13],Toxic
same,Activity,Mus musculus,Not active; Exhibited Minimal Activity
COc1cccc(-c2nc(CN3CCC(CO)CC3)co2)c1,fold change (FC),HepG2 [1],1.27
CN1CCN(Cc2coc(-c3ccc(C(F)(F)F)cc3)n2)CC1,fold change (FC),HepG2 [1],1.5
OC1CCN(Cc2coc(-c3ccc(C(F)(F)F)cc3)n2)CC1,fold change (FC),HepG2 [1],1.42
OC1CCCN(Cc2coc(-c3ccc(C(F)(F)F)cc3)n2)C1 (configuration not stated),fold change (FC),HepG2 [1],1.49
COc1ccc(-c2nc(CN3CCC(CO)CC3)co2)cc1,fold change (FC),HepG2 [1],1.05
COC1CCN(Cc2coc(-c3ccc(C(F)(F)F)cc3)n2)CC1,fold change (FC),HepG2 [1],1.61
same,Activity,HepG2 [3],Dose-dependent-effect
same,Activity,3T3-L1 [4],Dose-dependent-effect
same,Activity,HepG2 [5],Non-toxic
same,Activity,3T3-L1 [6],Non-toxic
same,IC50 at 72 h,[7],> 100 µM
same,IC50 at 72 h,[8],> 100 µM
same,Activity,HepG2 [9],Non-toxic
same,Activity,3T3-L1 [10],Non-toxic
same,Activity,Mus musculus,Not active; Exhibited Weak Activity
